Experimental data as given in US10246426B2, “Triazole compounds as T-type calcium channel blockers” (IDORSIA PHARMACEUTICALS LTD, priority 2014, dated 2019).

Biological target: Cav3.2 (Homo sapiens, UniProt O95180)
Experiment: Calcium flux FLIPR assay, HEK293 cells recombinantly expressing Cav3.2
Assay type: cell-based
Conditions: Cav3.2-channel, Ca2+ entry stimulated by 10 mM CaCl2
Experimental: In Vitro Methods—Measurement of Calcium Channel Flux by Means of FLIPR Assays.
HEK293 cells recombinantly expressing either voltage-dependent T-type calcium channel subunit […] (Cav3.2) or voltage-dependent L-type calcium channel subunit alpha-1C (Cav1.2) are assayed for calcium flux using the calcium indicator dye Fluo-4-AM (Molecular Devices) and FLIPR technology (Fluorometric Imaging Plate Reader, Molecular Devices) (Xie X, Van Deusen A L, Vitko I, Babu D A, Davies L A, Huynh N, Cheng H, Yang N, Barrett P Q, Perez-Reyes E. Validation of high throughput screening assays against three subtypes of Ca(v)3 T-type channels using molecular and pharmacologic approaches. Assay and Drug Development Technologies 2007, 5(2), 191-203). The HEK293 cells recombinantly expressing Cav3.2 are maintained in DMEM growth medium (Life Technologies) supplemented with 10% Fetal Bovine Serum (FBS), 100 U/ml penicilin (Life Technologies), 100 μg/ml streptomycin (Life Technologies) and 1 mg/ml G418 (Life Technologies). HEK293 cells recombinantly expressing Cav1.2 are maintained in DMEM growth medium (Life technologies) supplemented with 10% FBS, 0.1 mg/ml G418 (Life Technologies), 0.1 mg/ml hygromycin (Life Technologies) and 40 ug/ml zeocin (Life Technologies).
Cells are washed once with PBS, then dissociated in 0.25% trypsin/EDTA (Life Technologies) and seeded into poly-D-lysine coated 384-well black, clear bottom plates (BD Biosciences) at a density of 30,000 cells/well. The seeded plates are incubated overnight at 37° C.
Immediately prior to performing the assay, medium is removed and cells are treated for 1 hour at 37° C. with loading buffer containing HBSS 1× (137 mM NaCl; 5.4 mM KCl; 0.25 mM Na2HPO4; 1.3 mM CaCl2; 0.4 mM MgSO04; 0.5 mM MgCl2; 0.4 mM KH2PO4, pH 7.4), 0.375 g/L NaHCO3, 20 mM Hepes, supplemented with 3 μM Fluo-4-AM and 0.15% Pluronic (Life Technologies). The cells are then washed three times with assay buffer (HBSS 1×; 0.375 g/L NaHCO3; 20 mM Hepes; 1% FBS; pH 7.4) and allowed to rest in 50 μl of wash buffer for 30 minutes.
Stock solutions of test compounds are prepared to a concentration of 10 mM in DMSO. For the Cav3.2 assay, serial dilutions of the compounds are prepared in TEAC buffer (100 mM tetraethylammonium chloride; 20 mM Hepes; 2.5 mM CaCl2; 5 mM KCl; 1 mM MgCl2; 1% FBS; pH 7.2), for the Cav1.2 assay serial dilutions are prepared in assay buffer. […] The compounds are incubated with the cells for 3 minutes and Ca2+ entry is stimulated by adding either CaCl2 to a final concentration of 10 mM (Cav3.2 assay) or by adding KCl to a final concentration of 20 mM (Cav1.2 assay). The kinetics of fluorescence increase are recorded for every well and the area under the fluorescence trace for every compound concentration is used to generate inhibition curves using non-linear regression sigmoidal concentration-response curve analysis with in-house software. IC50 values are calculated and represent the compound concentration required to inhibit 50% of the signal that is obtained in the presence of vehicle instead of test compound.

Sequence of Cav3.2 (O95180 whole entry, looked up): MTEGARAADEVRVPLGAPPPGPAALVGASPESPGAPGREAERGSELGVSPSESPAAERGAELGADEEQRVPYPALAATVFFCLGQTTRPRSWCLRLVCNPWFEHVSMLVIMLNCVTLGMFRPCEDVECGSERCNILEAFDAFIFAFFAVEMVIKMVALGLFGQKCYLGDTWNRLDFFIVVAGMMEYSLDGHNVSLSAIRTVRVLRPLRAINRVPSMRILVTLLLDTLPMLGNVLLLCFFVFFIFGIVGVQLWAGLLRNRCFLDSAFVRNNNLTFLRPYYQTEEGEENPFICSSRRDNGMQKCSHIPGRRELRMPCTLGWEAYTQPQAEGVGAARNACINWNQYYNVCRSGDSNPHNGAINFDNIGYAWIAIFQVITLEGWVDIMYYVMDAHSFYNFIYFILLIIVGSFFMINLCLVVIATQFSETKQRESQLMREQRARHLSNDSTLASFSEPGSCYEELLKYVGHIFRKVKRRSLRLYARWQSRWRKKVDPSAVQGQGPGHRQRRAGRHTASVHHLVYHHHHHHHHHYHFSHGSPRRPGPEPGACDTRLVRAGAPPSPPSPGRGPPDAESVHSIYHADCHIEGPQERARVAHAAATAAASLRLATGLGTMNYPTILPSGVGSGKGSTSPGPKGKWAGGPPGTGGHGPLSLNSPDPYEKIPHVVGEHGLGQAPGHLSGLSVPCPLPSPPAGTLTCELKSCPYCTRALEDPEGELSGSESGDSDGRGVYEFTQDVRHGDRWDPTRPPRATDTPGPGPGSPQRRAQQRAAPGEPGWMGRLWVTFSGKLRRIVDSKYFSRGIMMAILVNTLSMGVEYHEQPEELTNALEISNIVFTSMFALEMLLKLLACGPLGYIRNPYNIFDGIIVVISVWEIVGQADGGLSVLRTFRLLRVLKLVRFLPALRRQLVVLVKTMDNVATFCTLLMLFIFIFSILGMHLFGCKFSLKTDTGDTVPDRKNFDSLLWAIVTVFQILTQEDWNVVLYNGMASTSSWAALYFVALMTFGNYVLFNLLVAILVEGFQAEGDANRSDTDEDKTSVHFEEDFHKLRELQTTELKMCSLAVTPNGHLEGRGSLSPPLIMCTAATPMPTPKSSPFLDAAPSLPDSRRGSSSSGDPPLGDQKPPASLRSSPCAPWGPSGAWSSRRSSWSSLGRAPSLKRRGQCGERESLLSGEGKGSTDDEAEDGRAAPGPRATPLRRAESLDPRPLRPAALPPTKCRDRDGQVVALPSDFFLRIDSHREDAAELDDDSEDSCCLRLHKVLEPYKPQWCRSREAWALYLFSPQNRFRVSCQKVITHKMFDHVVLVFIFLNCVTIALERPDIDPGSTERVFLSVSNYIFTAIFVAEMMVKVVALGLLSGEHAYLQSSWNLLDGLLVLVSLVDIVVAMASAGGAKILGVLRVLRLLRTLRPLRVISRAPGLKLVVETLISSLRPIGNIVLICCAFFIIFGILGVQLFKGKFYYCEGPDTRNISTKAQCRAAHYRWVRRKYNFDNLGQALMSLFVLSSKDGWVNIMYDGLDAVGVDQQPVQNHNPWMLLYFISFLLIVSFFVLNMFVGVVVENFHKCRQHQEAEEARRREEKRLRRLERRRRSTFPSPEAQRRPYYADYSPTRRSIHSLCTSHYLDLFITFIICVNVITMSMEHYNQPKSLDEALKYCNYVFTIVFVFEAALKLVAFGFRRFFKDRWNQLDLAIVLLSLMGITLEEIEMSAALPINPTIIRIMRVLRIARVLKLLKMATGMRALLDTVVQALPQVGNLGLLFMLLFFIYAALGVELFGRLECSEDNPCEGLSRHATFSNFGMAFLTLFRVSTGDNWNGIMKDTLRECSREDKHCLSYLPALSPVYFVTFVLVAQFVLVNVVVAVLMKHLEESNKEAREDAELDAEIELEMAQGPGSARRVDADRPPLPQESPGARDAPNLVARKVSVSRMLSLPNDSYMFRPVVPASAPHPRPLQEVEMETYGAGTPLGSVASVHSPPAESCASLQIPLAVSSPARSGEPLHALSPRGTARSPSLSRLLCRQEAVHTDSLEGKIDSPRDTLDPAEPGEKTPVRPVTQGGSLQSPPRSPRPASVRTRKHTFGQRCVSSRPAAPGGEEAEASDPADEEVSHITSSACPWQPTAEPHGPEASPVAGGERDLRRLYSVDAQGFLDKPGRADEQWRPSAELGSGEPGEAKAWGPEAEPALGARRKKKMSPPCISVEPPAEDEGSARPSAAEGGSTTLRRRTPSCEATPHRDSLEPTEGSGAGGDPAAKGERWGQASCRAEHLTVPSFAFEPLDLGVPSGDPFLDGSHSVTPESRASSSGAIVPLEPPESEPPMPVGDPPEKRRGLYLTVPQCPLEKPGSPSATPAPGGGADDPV

SMILES | IC50 [nM]
CN(C)c1ccc(CC(=O)Nc2cnn(Cc3ccc(F)cc3)n2)cc1 [Example 2, 2-(4-Dimethylamino-phenyl)-N-[2-(4-fluoro-benzyl)-2H-[1,2,3]triazol-4-yl]-acetamide] | 17
CC(C)c1ccc(CC(=O)Nc2cnn(Cc3ccc(F)c(F)c3)n2)cc1 [Example 5, N-[2-(3,4-Difluoro-benzyl)-2H-[1,2,3]triazol-4-yl]-2-(4-isopropyl-phenyl)-acetamide] | 30
O=C(Cc1ccc2cc[nH]c2c1)Nc1cnn(Cc2ccc(F)c(F)c2)n1 [Example 8, N-[2-(3,4-Difluoro-benzyl)-2H-[1,2,3]triazol-4-yl]-2-(1H-indol-6-yl)-acetamide] | 37
O=C(Cc1ccc(OC2CCC2)cc1)Nc1cnn(Cc2ccc(F)c(F)c2)n1 [Example 9, 2-(4-Cyclobutoxy-phenyl)-N-[2-(3,4-difluoro-benzyl)-2H-[1,2,3]triazol-4-yl]-acetamide] | 22
O=C(Cc1ccc(OC2CC2)cc1)Nc1cnn(Cc2ccc(F)c(F)c2)n1 [Example 10, 2-(4-Cyclopropoxy-phenyl)-N-[2-(3,4-difluoro-benzyl)-2H-[1,2,3]triazol-4-yl]-acetamide] | 23
CN(CC1CC1)c1ccc(CC(=O)Nc2cnn(Cc3ccc(F)c(F)c3)n2)cn1 [Example 12, 2-[6-(Cyclopropylmethyl-methyl-amino)-pyridin-3-yl]-N-[2-(3,4-difluoro-benzyl)-2H-[1,2,3]triazol-4-yl]-acetamide] | 31
O=C(Cc1ccc2[nH]ccc2c1)Nc1cnn(Cc2ccc(F)c(F)c2)n1 [Example 15, N-[2-(3,4-Difluoro-benzyl)-2H-[1,2,3]triazol-4-yl]-2-(1H-indol-5-yl)-acetamide] | 40
O=C(Cc1ccc(N2CCC(F)(F)C2)nc1)Nc1cnn(Cc2ccc(F)c(F)c2)n1 [Example 17, N-[2-(3,4-Difluoro-benzyl)-2H-[1,2,3]triazol-4-yl]-2-[6-(3,3-difluoro-pyrrolidin-1-yl)-pyridin-3-yl]-acetamide] | 7.3
O=C(Cc1ccc(N2CCCC2)nc1)Nc1cnn(Cc2ccc(F)c(F)c2)n1 [Example 18, N-[2-(3,4-Difluoro-benzyl)-2H-[1,2,3]triazol-4-yl]-2-(6-pyrrolidin-1-yl-pyridin-3-yl)-acetamide] | 15
CN1C(=O)C(C)(C)c2cc(CC(=O)Nc3cnn(Cc4ccc(F)c(F)c4)n3)ccc21 [Example 19, N-[2-(3,4-Difluoro-benzyl)-2H-[1,2,3]triazol-4-yl]-2-(1,3,3-trimethyl-2-oxo-2,3-dihydro-1H-indol-5-yl)-acetamide] | 9.7
O=C(Cc1ccc(C2COC2)cc1)Nc1cnn(Cc2ccc(F)c(F)c2)n1 [Example 23, N-[2-(3,4-Difluoro-benzyl)-2H-[1,2,3]triazol-4-yl]-2-(4-oxetan-3-yl-phenyl)-acetamide] | 46
Cc1ccc(Cn2ncc(NC(=O)Cc3ccc(C(C)C)cc3)n2)cc1 [Example 24, 2-(4-Isopropyl-phenyl)-N-[2-(4-methyl-benzyl)-2H-[1,2,3]triazol-4-yl]-acetamide] | 37
COc1ccc(Cn2ncc(NC(=O)Cc3ccc(C(C)C)cc3)n2)cc1 [Example 25, 2-(4-Isopropyl-phenyl)-N-[2-(4-methoxy-benzyl)-2H-[1,2,3]triazol-4-yl]-acetamide] | 33
CC(C)c1ccc(CC(=O)Nc2cnn(Cc3ccc(C#N)cc3)n2)cc1 [Example 26, N-[2-(4-Cyano-benzyl)-2H-[1,2,3]triazol-4-yl]-2-(4-isopropyl-phenyl)-acetamide] | 19
Cc1nn(C)c2ccc(CC(=O)Nc3cnn(Cc4ccc(F)c(F)c4)n3)cc12 [Example 28, N-[2-(3,4-Difluoro-benzyl)-2H-[1,2,3]triazol-4-yl]-2-(1,3-dimethyl-1H-indazol-5-yl)-acetamide] | 22
CCCCc1n[nH]c2ccc(CC(=O)Nc3cnn(Cc4ccc(F)c(F)c4)n3)cc12 [Example 32, 2-(3-Butyl-1H-indazol-5-yl)-N-[2-(3,4-difluoro-benzyl)-2H-[1,2,3]triazol-4-yl]-acetamide] | 74
CCCn1ncc2cc(CC(=O)Nc3cnn(Cc4ccc(F)c(F)c4)n3)ccc21 [Example 34, N-[2-(3,4-Difluoro-benzyl)-2H-[1,2,3]triazol-4-yl]-2-(1-propyl-1H-indazol-5-yl)-acetamide] | 18
Cn1nc(C2CC2)c2cc(CC(=O)Nc3cnn(Cc4ccc(F)c(F)c4)n3)ccc21 [Example 35, 2-(3-Cyclopropyl-1-methyl-1H-indazol-5-yl)-N-[2-(3,4-difluoro-benzyl)-2H-[1,2,3]triazol-4-yl]-acetamide] | 29

Second part, the compound after the results:

IC50 [nM] | SMILES
21 | CC(C)c1ccc(CC(=O)Nc2cnn(Cc3ccc(F)cc3)n2)cc1 [Example 1, N-[2-(4-Fluoro-benzyl)-2H-[1,2,3]triazol4-yl]-2-(4-isopropyl-phenyl)-acetamide]
6.4 | Cn1ccc2cc(CC(=O)Nc3cnn(Cc4ccc(F)c(F)c4)n3)ccc21 [Example 7, N-[2-(3,4-Difluoro-benzyl)-2H-[1,2,3]triazol-4-yl]-2-(1-methyl-1H-indol-5-yl)-acetamide]
32 | CN(c1ccc(CC(=O)Nc2cnn(Cc3ccc(F)c(F)c3)n2)cn1)C1CC1 [Example 11]
17 | O=C(Cc1ccc(C2(F)COC2)cc1)Nc1cnn(Cc2ccc(F)c(F)c2)n1 [Example 14, N-[2-(3,4-Difluoro-benzyl)-2H-[1,2,3]triazol-4-yl]-2-[4-(3-fluoro-oxetan-3-yl)-phenyl]-acetamide]
15 | CCN(CC)c1ccc(CC(=O)Nc2cnn(Cc3ccc(F)c(F)c3)n2)cn1 [Example 16, 2-(6-Diethylamino-pyridin-3-yl)-N-[2-(3,4-difluoro-benzyl)-2H-[1,2,3]triazol-4-yl]-acetamide]
89 | COC1(c2ccc(CC(=O)Nc3cnn(Cc4ccc(F)c(F)c4)n3)cc2)COC1 [Example 20, N-[2-(3,4-Difluoro-benzyl)-2H-[1,2,3]triazol-4-yl]-2-[4-(3-methoxy-oxetan-3-yl)-phenyl]-acetamide]
15 | CC1(c2ccc(CC(=O)Nc3cnn(Cc4ccc(F)c(F)c4)n3)cc2)COC1 [Example 22, N-[2-(3,4-Difluoro-benzyl)-2H-[1,2,3]triazol-4-yl]-2-[4-(3-methyl-oxetan-3-yl)-phenyl]-acetamide]
9.8 | CCn1ncc2cc(CC(=O)Nc3cnn(Cc4ccc(F)c(F)c4)n3)ccc21 [Example 27, N-[2-(3,4-Difluoro-benzyl)-2H-[1,2,3]triazol-4-yl]-2-(1-ethyl-1H-indazol-5-yl)-acetamide]
120 | O=C(Cc1ccc2[nH]nc(C3CC3)c2c1)Nc1cnn(Cc2ccc(F)c(F)c2)n1 [Example 29, 2-(3-Cyclopropyl-1H-indazol-5-yl)-N-[2-(3,4-difluoro-benzyl)-2H-[1,2,3]triazol-4-yl]-acetamide]
17 | CCCCn1ncc2cc(CC(=O)Nc3cnn(Cc4ccc(F)c(F)c4)n3)ccc21 [Example 30, 2-(1-Butyl-1H-indazol-5-yl)-N-[2-(3,4-difluoro-benzyl)-2H-[1,2,3]triazol-4-yl]-acetamide]
11 | Cc1cc2cc(CC(=O)Nc3cnn(Cc4ccc(F)c(F)c4)n3)ccc2[nH]1 [Example 31, N-[2-(3,4-Difluoro-benzyl)-2H-[1,2,3]triazol-4-yl]-2-(2-methyl-1H-indol-5-yl)-acetamide]
24 | CC(C)n1ncc2cc(CC(=O)Nc3cnn(Cc4ccc(F)c(F)c4)n3)ccc21 [Example 33, N-[2-(3,4-Difluoro-benzyl)-2H-[1,2,3]triazol-4-yl]-2-(1-isopropyl-1H-indazol-5-yl)-acetamide]
580 | Cn1ncc2cc(CC(=O)Nc3cnn(Cc4ccc(F)c(F)c4)n3)cnc21 [Example 38, N-[2-(3,4-Difluoro-benzyl)-2H-[1,2,3]triazol-4-yl]-2-(1-methyl-1H-pyrazolo[3,4-b]pyridin-5-yl)-acetamide]
